The text below walks through data of US11001802B2, “Surface of a vessel with polystyrene, nitrogen, oxygen and a static sessile contact angle for attachment and cultivation of cells” (Nunc A/S, priority 2008, dated 2021).

For experiment [1], the system named is human ES cell line H9. As to the kind of experiment: Attachment and colony formation of H9 human ES cells on surface modified plates with Rho kinase inhibitors (crystal violet, image analysis). Type of experiment: cell-based. As for the experimental part: Human ES cells of the line H9, at passage 40 were maintained in MEF conditioned media on Nunclon Delta™ plates treated with a 1:30 dilution of growth factor reduced Matrigel™, prior to study. Cells were dissociated from the surface for passage by 1 mg/ml collagenase dissociation or by manual scraping.
These cells were then seeded onto surface modified plates 2, 3, 4 and 13 (12-well format) in the presence of increasing amounts one of the following Rho Kinase inhibitors: Y-27632 (from Sigma, St. Louis, Mo. or EMD, San Diego, Calif.), Fasudil (Sigma), or Hydroxyfasudil (Sigma), and maintained for 3 days, each day replacing the media and compound. At the end of day three, media was removed and the plates were stained with Crystal Violet (0.5% in water) to visualize colonies.
It was attempted to determine the optimal dose of Y-27632 to promote cell binding, by treating cells with a range of plating concentrations of Y-27632 for the first day of culture. After the first day in culture cells were treated on subsequent days with a 10 μM concentration of Y-27632. It was observed that the maximal concentration to stimulate attachment and growth of ES cells was 10 μM (FIG. 12) and that this occurred on surface modified plates 2, 3, 4, 13 and CellBIND™ (Corning, Corning, N.Y.).
The effect of treating the cells continuously with a single dose of Y-27632 on attachment and growth was also tested. The cells were dosed with 0, 1, 4, or 10 μM Y-27632 for 4 days. Some binding was observed on surface modified plates without treatment (0 μM), however the optimal concentration to stimulate attachment and growth of ES cells was 10 μM Y-27632 (Table 4) on surface modified plates 2, 3, 4, 13.

A further experiment has as its system H9 human ES cells. As to the kind of experiment: Adherence of H9 human ES cells to surface modified plates with increasing Y-27632, crystal violet (Example 12). Format: cell-based. The protocol:
Passage 49 H9 human ES cells previously plated to 1:30 Matrigel™ treated plasticware and grown in MEF conditioned media supplemented with 8 ng/ml of bFGF were LIBERASE treated and plated to surface modified plates in MEF conditioned media supplemented with 8 ng/ml of bFGF and not otherwise treated or supplemented with increasing concentrations of Y-27632. 24 and 48 hours after plating H9 human ES cells to surface modified plates small colonies could be observed on Surfaces 2-4 and 13, and CellBIND™, and Primaria™ (cat. no. 353846, Becton Dickinson, Franklin Lakes, N.J.) with crystal violet stain (FIGS. 24-26). Furthermore, the adherence of H9 human ES cell colonies was improved by the addition of Y-27632 and the effect was dose responsive (FIG. 25).

For experiment [2], the system named is human ES cell line H9. Put plainly: Adhesion and growth of H9 cells passaged as single cells on surface modified plates (Examples 6, 8). Type of experiment: cell-based. The protocol:
Human ES cells of the cell line H9 were grown as single cells according to the methods disclosed in US patent Application LFS5163USPSP, assigned to LifeScan Inc. Cells were passaged by treatment with TrypLE™ Express for five minutes at 37° C., and seeded at 10,000 cells/cm^2 substrate surface.
Initial passaging of H9 human ES cells onto surface modified plates. Adhesion is improved with continuous 10 μM of Y-27632. This is true for the four surface modified plates tested: 2, 3, 4 and 13.
The role of Y-27632 in human ES cell adhesion and cell growth was studied in relation to the surface modified plates. H9 human ES cells were passaged 38 times with collagenase and 50 times with TrypLE™ Express followed by seeding onto Surfaces modified plates 3 or 4 (naïve cells). Alternatively H9 human ES cells passaged 38 times with collagenase and 38 times with Triple Express followed by 9 passages on surface modified plate 3 (Surface 3, acclimated cells), or surface modified plate 4 (Surface 4, acclimated cells). Cells were seeded at a density of 10^4/cm^2 in MEF conditioned media and grown for two days with or without the presence of 10 μM of Y-27632. […] Surface modified plate 4 improved attachment and/or growth of acclimated human ES cells. The cells were followed for a total of 4 days (FIGS. 19 and 20).

A further experiment deals with HEK293 cells. Put plainly: HEK293 growth over three passages, total cell number (Example 22). Format: cell-based, human. Conditions: Surface 4 and Nunclon Delta surface; 2.5 μM Y-27632. The protocol:
EMEM (500 μl) supplemented with 10% FBS containing 5.0 μM Y-27632 was dispensed in wells of Multidish 24-well plates with Surface 4 or Nunclon Delta™ surface. Another 500 μl of EMEM supplemented with 10% FBS and containing HEK293 cells was added to the wells (2.0×10^4 cells/cm^2), and the cultures were incubated at 37° C. in a humidified atmosphere of 5% CO2 in air for 3 days. Cells were passaged by treatment with Trypsin/EDTA (Lonza, Verviers, Belgium) for two minutes at 37° C., and the total cell number was determined using a NucleoCount Cell Counter (Chemometec A/S, Allered, Denmark). For successive passages, HEK293 cells were seeded at 2.0×10^4 cells/cm^2. The growth of HEK293 cells on Surface 4 and Nunclon Delta™ surface was enhanced by the presence of 2.5 μM Y-27632 (FIG. 34).

Experiment [3] relates to dissociated human embryonic stem cells. Conditions: from approximately 1%; Wanatabe et al.; cited from earlier work.

SMILES strings stand for the structures.

Turning to `C[C@@H](N)[C@H]1CC[C@H](C(=O)Nc2ccncc2)CC1` [Surface Y-27632, Y-27632], the “attachment of ES cell colonies by day three” value in the experiment with human ES cell line H9 [1] (H9 on surface modified plates 2, 3, 4 and 13, crystal violet, Y-27632 at 10 μM) is recorded as “Best results”. Besides, the cell proliferation result in the experiment with human ES cell line H9 [1] (Matrigel treated plates with or without 10 μM Y-27632 (FIG. 14)) was “grow at a similar density as untreated cells”. Moreover, the “optimal concentration to stimulate attachment and growth of ES cells” value in the experiment with human ES cell line H9 [1] (continuous 0, 1, 4 or 10 μM for 4 days, plates 2, 3, 4, 13) came out at 10 µM. The “maximal concentration to stimulate attachment and growth of ES cells” value in the experiment on human ES cell line H9 [1] (range of plating concentrations first day, then 10 μM, plates 2, 3, 4, 13 and CellBIND) is 10 µM. Besides, the “human ES cell attachment versus untreated” value with H9 human ES cells (1 to 2 micromolar Y-27632) is “minimal improvement”. In the experiment on H9 human ES cells (4 to 20 micromolar Y-27632), the “adherence of human ES cells to surface modified plates” value is reported as “promoted adherence”. The “attachment of naïve single cells” value in the experiment on human ES cell line H9 [2] (10 μM Y-27632, surface modified plates 3 and 4) is reported as “improves attachment”. The “attachment of acclimated single cells” value in the experiment with human ES cell line H9 [2] (10 μM Y-27632, surface modified plates 3 or 4) is listed as “did not improve attachment”. Besides, the “adhesion of H9 cells passaged with TrypLE Express” value in the experiment with human ES cell line H9 [2] (continuous 10 μM Y-27632, surface modified plates 2, 3, 4 and 13) is recorded as “improved”. In addition, in the experiment on HEK293 cells, the “growth of HEK293 cells over 3 passages” value was “enhanced”. Moreover, the cloning efficiency entry in experiment [3] is on record as “approximately 27%”.
